Key:
A-375 [1] = test: Antitumor activity against human A-375 cells xenografted in po dosed nude mouse assessed as tumor growth inhibition at 100 mg/kg administered once daily measured after 21 days relative to control; format: functional; conditions: A-375, 504 h, time 21 day, read-out: TGI
ASPC1 [2] = test: Induction of apoptosis in human ASPC1 cells at 15 uM measured after 96 hrs by Annexin V-FITC/PI staining based flow cytometric analysis (reference value: 6.1 %); format: functional
SMMC-7721 = test: Antiproliferative activity against human SMMC-7721 cells assessed as cell growth inhibition incubated for 6 days by SRB assay; format: functional, cell-based; conditions: SMMC-7721, 144 h
[3] = target: Protein arginine N-methyltransferase 3 (Homo sapiens, UniProt O60678); test: Inhibition of PRMT3 (unknown origin) incubated for 15 mins measured after 60 min by AlphaLISA assay
MC-38 [4] = test: Antitumor activity against mouse MC38 cells implanted in po dosed BALB/c nude mouse assessed as tumor growth inhibition at 100 mg/kg administered once daily measured after 18 days relative to control; format: functional; conditions: MC-38, 432 h, time 18 day, read-out: TGI
ASPC1 [5] = test: Antiproliferative activity against human ASPC1 cells assessed as cell growth inhibition incubated for 6 days by SRB assay; format: functional, cell-based; conditions: ASPC1, 144 h
MC-38 [6] = test: Antitumor activity against mouse MC38 cells implanted in po dosed C57BL/6J mouse assessed as tumor growth inhibition at 100 mg/kg administered once daily measured after 32 days relative to control; format: functional; conditions: MC-38, 768 h, time 32 day, read-out: TGI
A-375 [7] = test: Induction of apoptosis in human A-375 cells at 15 uM measured after 96 hrs by Annexin V-FITC/PI staining based flow cytometric analysis (reference value: 5.6 %); format: functional
[8] = target: T1, Protein arginine N-methyltransferase 7 (Homo sapiens, UniProt Q9NVM4); test: Inhibition of PRMT7 (unknown origin) by radioisotope based assay
T1 sequence (Q9NVM4 whole entry): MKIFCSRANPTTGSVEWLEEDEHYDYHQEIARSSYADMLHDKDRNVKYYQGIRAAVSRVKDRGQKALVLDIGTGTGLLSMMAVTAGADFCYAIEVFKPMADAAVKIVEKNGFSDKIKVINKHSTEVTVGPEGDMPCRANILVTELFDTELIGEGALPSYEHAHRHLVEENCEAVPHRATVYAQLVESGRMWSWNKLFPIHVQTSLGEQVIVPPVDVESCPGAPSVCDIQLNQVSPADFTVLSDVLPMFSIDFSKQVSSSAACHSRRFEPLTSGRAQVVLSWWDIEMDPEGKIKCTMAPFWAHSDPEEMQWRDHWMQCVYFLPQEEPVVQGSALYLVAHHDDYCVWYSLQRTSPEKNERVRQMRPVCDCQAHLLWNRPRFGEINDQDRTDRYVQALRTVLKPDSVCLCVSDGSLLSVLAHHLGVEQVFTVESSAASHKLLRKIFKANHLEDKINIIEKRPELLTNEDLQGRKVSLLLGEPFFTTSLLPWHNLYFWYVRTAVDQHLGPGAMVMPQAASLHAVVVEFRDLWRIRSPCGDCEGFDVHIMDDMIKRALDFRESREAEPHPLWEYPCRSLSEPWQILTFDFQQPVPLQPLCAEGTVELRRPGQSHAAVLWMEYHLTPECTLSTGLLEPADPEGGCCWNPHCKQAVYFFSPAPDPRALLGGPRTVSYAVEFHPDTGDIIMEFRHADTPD

BT-549 [9] = test: Antitumor activity against human BT-549 cells xenografted in po dosed nude mouse assessed as tumor growth inhibition at 125 mg/kg administered once daily measured after 18 days relative to control; format: functional; conditions: BT-549, 432 h, time 18 day, read-out: TGI
[10] = Toxicity in po dosed nude mouse xenografted with human A-375 cells assessed as change in body weight at 100 mg/kg administered once daily measured after 21 days; format: organism-based; conditions: in vivo, 504 h, time 21 day
[11] = target: Protein arginine N-methyltransferase 6 (Homo sapiens, UniProt Q96LA8); test: Inhibition of PRMT6 (unknown origin) incubated for 15 mins measured after 60 min by AlphaLISA assay
[12] = target: Protein arginine N-methyltransferase 5 (Homo sapiens, UniProt O14744); test: Inhibition of PRMT5 (unknown origin) incubated for 15 mins measured after 60 min by AlphaLISA assay
A-375 [13] = test: Antiproliferative activity against human A-375 cells assessed as cell growth inhibition incubated for 6 days by SRB assay; format: functional, cell-based; conditions: A-375, 144 h
BT-549 [14] = test: Induction of apoptosis in human BT-549 cells at 15 uM measured after 96 hrs by Annexin V-FITC/PI staining based flow cytometric analysis (reference value: 9.7 %); format: functional
BT-549 [15] = test: Antiproliferative activity against human BT-549 cells assessed as cell growth inhibition incubated for 6 days by SRB assay; format: functional, cell-based; conditions: BT-549, 144 h
BT-549 [16] = test: Antitumor activity against human BT-549 cells xenografted in po dosed nude mouse assessed as tumor growth inhibition at 75 mg/kg administered once daily measured after 18 days relative to control; format: functional; conditions: BT-549, 432 h, time 18 day, read-out: TGI
[17] = target: Protein arginine N-methyltransferase 1 (Homo sapiens, UniProt Q99873); test: Inhibition of PRMT1 (unknown origin) incubated for 15 mins measured after 60 min by AlphaLISA assay
[18] = Toxicity in po dosed nude mouse xenografted with human BT-549 cells assessed as change in body weight at 75 to 125 mg/kg administered once daily measured after 18 days; format: organism-based; conditions: in vivo, 432 h, dose 75-125 mg/kg, time 18 day
MDA-MB-453 = test: Antiproliferative activity against human MDA-MB-453 cells assessed as cell growth inhibition incubated for 6 days by SRB assay; format: functional, cell-based; conditions: MDA-MB-453, 144 h
[19] = target: Protein arginine N-methyltransferase 8 (Homo sapiens, UniProt Q9NR22); test: Inhibition of PRMT8 (unknown origin) incubated for 15 mins measured after 60 min by AlphaLISA assay
Sequence of Protein arginine N-methyltransferase 8 (Q9NR22 whole entry): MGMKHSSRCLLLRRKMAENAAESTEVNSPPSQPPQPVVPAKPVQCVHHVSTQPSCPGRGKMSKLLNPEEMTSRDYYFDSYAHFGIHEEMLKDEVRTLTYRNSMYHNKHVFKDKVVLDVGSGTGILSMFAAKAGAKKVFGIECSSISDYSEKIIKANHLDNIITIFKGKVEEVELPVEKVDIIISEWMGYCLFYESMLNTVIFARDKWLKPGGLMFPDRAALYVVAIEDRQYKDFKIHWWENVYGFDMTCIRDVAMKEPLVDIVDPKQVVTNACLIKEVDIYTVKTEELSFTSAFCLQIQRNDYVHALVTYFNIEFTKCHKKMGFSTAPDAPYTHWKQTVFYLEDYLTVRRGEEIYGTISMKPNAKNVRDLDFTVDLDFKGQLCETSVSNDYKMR

Sequence of Protein arginine N-methyltransferase 6 (Q96LA8 whole entry): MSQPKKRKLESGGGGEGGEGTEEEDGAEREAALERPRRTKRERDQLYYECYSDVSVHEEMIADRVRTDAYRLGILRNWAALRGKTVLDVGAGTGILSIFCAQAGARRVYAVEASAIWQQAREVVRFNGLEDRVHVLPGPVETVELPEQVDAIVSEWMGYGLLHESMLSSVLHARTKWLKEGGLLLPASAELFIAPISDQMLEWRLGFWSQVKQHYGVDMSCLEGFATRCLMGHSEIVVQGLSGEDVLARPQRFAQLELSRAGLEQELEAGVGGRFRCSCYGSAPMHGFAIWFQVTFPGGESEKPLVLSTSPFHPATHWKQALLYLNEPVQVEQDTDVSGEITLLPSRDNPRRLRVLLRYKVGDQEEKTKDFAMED
Sequence of Protein arginine N-methyltransferase 1 (Q99873 whole entry): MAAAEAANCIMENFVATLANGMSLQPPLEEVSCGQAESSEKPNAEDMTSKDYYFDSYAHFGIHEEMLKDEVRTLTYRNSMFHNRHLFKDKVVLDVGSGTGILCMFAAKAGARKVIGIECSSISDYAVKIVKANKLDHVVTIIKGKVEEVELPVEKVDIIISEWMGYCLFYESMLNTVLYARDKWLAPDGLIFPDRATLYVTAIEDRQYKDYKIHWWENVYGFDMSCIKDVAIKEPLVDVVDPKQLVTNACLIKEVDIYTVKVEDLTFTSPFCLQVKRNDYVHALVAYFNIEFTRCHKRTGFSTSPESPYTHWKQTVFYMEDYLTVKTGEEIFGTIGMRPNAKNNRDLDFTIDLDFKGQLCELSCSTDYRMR
Sequence of Protein arginine N-methyltransferase 5 (O14744 whole entry): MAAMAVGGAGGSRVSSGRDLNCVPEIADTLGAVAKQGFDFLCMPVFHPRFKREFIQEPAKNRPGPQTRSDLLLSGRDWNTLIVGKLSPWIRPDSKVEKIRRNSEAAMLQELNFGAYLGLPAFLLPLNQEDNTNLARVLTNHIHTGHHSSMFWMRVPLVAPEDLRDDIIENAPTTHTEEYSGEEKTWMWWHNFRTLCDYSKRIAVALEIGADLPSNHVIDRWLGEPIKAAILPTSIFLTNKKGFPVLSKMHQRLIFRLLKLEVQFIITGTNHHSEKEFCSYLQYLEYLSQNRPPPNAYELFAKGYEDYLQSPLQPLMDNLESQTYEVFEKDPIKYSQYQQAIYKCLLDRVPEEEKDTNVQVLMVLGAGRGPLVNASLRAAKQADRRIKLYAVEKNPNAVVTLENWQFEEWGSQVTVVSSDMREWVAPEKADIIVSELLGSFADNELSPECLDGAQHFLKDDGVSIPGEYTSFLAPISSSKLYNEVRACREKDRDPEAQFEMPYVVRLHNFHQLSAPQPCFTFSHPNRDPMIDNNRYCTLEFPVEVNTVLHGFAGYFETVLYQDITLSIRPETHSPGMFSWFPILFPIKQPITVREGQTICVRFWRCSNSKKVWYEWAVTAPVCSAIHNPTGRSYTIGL
Sequence of Protein arginine N-methyltransferase 3 (O60678 whole entry): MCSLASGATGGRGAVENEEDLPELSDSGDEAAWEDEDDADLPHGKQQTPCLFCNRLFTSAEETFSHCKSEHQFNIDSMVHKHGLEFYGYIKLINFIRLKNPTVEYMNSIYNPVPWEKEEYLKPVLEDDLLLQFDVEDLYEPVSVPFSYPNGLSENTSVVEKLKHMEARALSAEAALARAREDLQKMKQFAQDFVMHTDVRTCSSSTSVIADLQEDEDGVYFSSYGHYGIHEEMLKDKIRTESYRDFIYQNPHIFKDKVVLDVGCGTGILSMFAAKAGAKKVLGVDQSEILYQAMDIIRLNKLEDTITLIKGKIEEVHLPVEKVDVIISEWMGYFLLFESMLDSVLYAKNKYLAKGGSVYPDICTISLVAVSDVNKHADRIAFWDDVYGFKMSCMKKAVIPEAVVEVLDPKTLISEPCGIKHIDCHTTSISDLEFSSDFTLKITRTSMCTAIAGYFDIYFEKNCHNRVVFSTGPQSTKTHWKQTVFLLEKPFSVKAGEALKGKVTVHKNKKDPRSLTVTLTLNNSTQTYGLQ

CNCCNCc1cccc(-c2nc(Nc3ccccc3)c(C)c(-c3c(C)noc3C)n2)c1
inhibition in vivo at 100 mg/kg (A-375 [1]): 69%
Activity (ASPC1 [2]): 17.2%
IC50 (SMMC-7721): 5.5 µM
IC50 [3]: > 1 µM
inhibition in vivo at 100 mg/kg (MC-38 [4]): 23.3%
IC50 (ASPC1 [5]): 12.3 µM
inhibition in vivo at 100 mg/kg (MC-38 [6]): 79.6%
Activity (A-375 [7]): 44%
IC50 [8]: > 50 µM
inhibition in vivo at 125 mg/kg (BT-549 [9]): 61.5%
Activity [10]: Non-Toxic
IC50 [11]: 0.49 µM
IC50 [12]: > 50 µM
IC50 (A-375 [13]): 5.9 µM
Activity (BT-549 [14]): 46.1%
IC50 (BT-549 [15]): 8.8 µM
inhibition in vivo at 75 mg/kg (BT-549 [16]): 38%
IC50 [17]: > 1 µM
Activity [18]: Non-Toxic
IC50 (MDA-MB-453): 5.7 µM
IC50 [19]: 0.92 µM

Source: ChEMBL document CHEMBL5236560, “Structure-Based Discovery of Potent CARM1 Inhibitors for Solid Tumor and Cancer Immunology Therapy” (J Med Chem, 2021)
